Measurements: patent US20190046490A1, “METHODS OF TREATING LACTOSE INTOLERANCE” (Nogra Pharma Limited, priority 2016, published 2019)
“Also recorded” adds a separate entry of the source.

System: LCT activity
Assay: Lactase activity in Caco-2 cells (glucose oxidase method)
Assay type: cell-based, human
Conditions: Caco-2 cells, 30 mM
Description: Lactase activity was evaluated by using a glucose oxidase method (Glucose Assay Kit, Sigma). This lactase assay is based on the measurement of the amount of glucose produced following the action of lactase by incubating samples with a lactose buffer solution (0.056 mol/l lactose in a 0.1 mol/l Na-maleate buffer). For Caco-2 cells, lactase activity was determined directly from the cell monolayer. After extensive washing, the cell monolayer was incubated with lactose buffer for one hour at 37° C. The supernatant was recovered, 50 μl were diluted with 100 μl of glucose oxidase reagent and incubated at 37° C. for 1 hour. The reaction was stopped with 100 μl of H2SO4 and read by spectrophotometry at 450 nm. When lactase activity was determined from intestinal sample, tissue samples were first dounce-homogenized in 0.9% NaCl on crushed ice. These homogenates were then diluted in 0.9% NaCl ( 1/500) and 50 μl of dilution were incubated with lactose buffer and used to determine lactase activity. For each experiment, the background attributed to the remaining glucose in the samples was measured by incubating cells or cell extracts in lactose-free buffer.

**Q.** For `COC(Cc1ccc(N)cc1)C(=O)O` (stereo not shown) [GED, 3-(4′-aminophenyl)2-methoxypropionic acid], which “LCT activity relative to control cells” value is on record?
**A.** significant increase; also recorded: significantly upregulated
